Changes are numbered by the printed parent chain.
Assays:
Format in all cases: biochemical, B. subtilis
GR-N75L [1] = biological target: T1, GR-N75L (Bacillus subtilis, UniProt P94556, N75L); experiment: Steady-state kinetics of D- to L- racemization by circular dichroism at 220 nm
T1 sequence (P94556 1-272 N75L): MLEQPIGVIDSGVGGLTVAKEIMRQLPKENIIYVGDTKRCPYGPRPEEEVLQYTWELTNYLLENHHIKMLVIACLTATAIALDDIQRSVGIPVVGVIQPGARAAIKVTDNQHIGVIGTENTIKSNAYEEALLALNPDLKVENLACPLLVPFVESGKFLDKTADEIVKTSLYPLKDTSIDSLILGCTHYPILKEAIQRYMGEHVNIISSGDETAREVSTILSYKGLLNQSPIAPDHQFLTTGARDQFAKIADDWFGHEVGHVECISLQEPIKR

GR-N75A [2] = biological target: T2, GR-N75A (Bacillus subtilis, UniProt P94556, N75A); experiment: as above
T2 sequence (P94556 1-272 N75A): T1 sequence (P94556 1-272 N75L) with L75A

GR-N75A [3] = biological target: T2, GR-N75A; experiment: Coupled-enzyme IC50 assay; settings: N75A mutation
GR-N75L [4] = biological target: T1, GR-N75L; experiment: Coupled-enzyme IC50 assay; settings: N75L mutation
[5] = substrate: N[C@H](CCC(=O)O)C(=O)O; experiment: Steady-state kinetics of D- to L- racemization by circular dichroism at 220 nm; settings: other: GR-WT, 25 °C, pH 8.0

Work on `N[C@H](CCC(=O)O)C(=O)O` [Compound 3, D-glutamate] yielded a kcat (GR-N75L [1]) of 0.15 ± 0.01 s⁻¹, a Km (GR-N75L [1]; 25 °C) of 490 ± 100 µM and a kcat (GR-N75A [2]) of 45.6 ± 1.9 s⁻¹. The Km (GR-N75A [2]; 25 °C) was 730 ± 90 µM.

In the case of `O=S(=O)(O)c1nc2ccccc2[nH]1` [Compound 1, 1H-benzimidazole-2-sulfonic acid], the “increase in IC50 compared to the IC50 for wild-type GR” value (GR-N75A [3]) is reported as 600% and the “increase in IC50 compared to the IC50 for wild-type GR” value (GR-N75L [4]) is reported as 50%.

B1: GR-WT (Bacillus subtilis subsp. subtilis str. 168) (protein)
chain: T1 sequence (P94556 1-272 N75L) with L75N
With B1 the kcat [5] was 1.64 ± 0.03 s⁻¹ and the kcat/Km [5] was 12600 ± 80 M⁻¹ s⁻¹.

From article PMC3782002 (Journal of Chemical Information and Modeling, 2013)
